Experimental data from patent publication US12227520B2 (priority 2019, dated 2025).
pEC50: −log10 of the molar value. Like-named read-outs stand apart in the source and are kept apart here.

Legend:
HIV-1 (IIIB) = experiment: Antiviral assay in MT-4 cells (HIV MT-4 antiviral assay); assay type: cell-based; details: Human immunodeficiency virus 1, IIIB, MT4, 120 h, HIV-1 (IIIB) in MT-4 cells, 5 days incubation; read-out: EC50
Summary of the method: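 MT-4 cells infected with HIV-1 IIIB (1:250 diluted stock) and exposed to 1:3 serially diluted compound in RPMI with 10% FBS. Viability read by CellTiter-Glo luminescence after 5 days at 37° C; mock-infected cells and 5 μM AZT as controls.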

[1] = Cytotoxicity assay in MT-4 cells; assay type: cell-based, human; details: human, uninfected MT-4 cells, 5 days incubation; read-out: CC50
Summary of the method: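 Infected MT-4 cells (HIV-1 IIIB, fresh 1:250 dilution of concentrated stock) or mock-infected cells exposed to compounds for 5 days at 37 °C. Viability by CellTiter-Glo luminescence; 5 μM AZT positive control, no-drug negative control. Uninfected cells used for cytotoxicity, with 10 μM puromycin as base-level cytotoxicity control.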

pLai RLuc reporter virus = experiment: microbe, parasite or virus in culture; assay type: cell-based, HIV; details: Human immunodeficiency virus 1, 72 h
Summary of the method: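 MT-4 cells pre-infected 2 h at 37 °C with pLai RLuc virus, then exposed to 1:3 serial dilutions of compound in RPMI/10% FBS with or without 50% human serum for 72 h at 37 °C. Renilla luminescence read-out; serum shift = EC50(HS/CCM)/EC50(CCM).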

[2] = read-out: Antiviral Serum Shift RLuc 50% HS, HS/CCM (RPMI media, 10% FBS, 50% HS, 1% P/S), 72-h incubation
[3] = read-out: Antiviral Serum Shift RLuc CCM, CCM (RPMI media, 10% FBS, 1% P/S), 72-h incubation

Row | Structure (SMILES) | pEC50 (HIV-1 (IIIB)) | CC50 at 5 days [1] [nM] | pEC50 (pLai RLuc reporter virus; [2]) | pEC50 (pLai RLuc reporter virus; [3])
1 | O=C(NCc1c(F)cc(F)cc1F)c1cn2c(c(O)c1=O)C(=O)N1CCCC[C@@H]2C1 [Example 26-1, (7R)-12-hydroxy-1,11-dioxo-N-(2,4,6-trifluorobenzyl)-1,4,5,6,7,11-hexahydro-3H-2,7-methanopyrido[1,2-a][1,4]diazonine-10-carboxamide] | 8.85 | 15900 | 7.48 | 9.45
2 | O=C(NCc1c(F)cc(F)cc1F)c1cn2c(c(O)c1=O)C(=O)N1CCc3ccccc3[C@H]2C1 (single isomer, unassigned) [Example 63-1] | 8.77 | 13800 | 8.67 | 9.34
3 | C[C@]1(F)CCCN2C[C@@H]1n1cc(C(=O)NCc3ccc(F)cc3F)c(=O)c(O)c1C2=O (single isomer, unassigned) [Example 60-2] | 8.71 | 14000 | 6.99 | 9.48
4 | O=C(NCc1ccc(F)cc1F)c1cn2c(c(O)c1=O)C(=O)N1CCCOC[C@H]2C1 [Example 1-2, (R)-N-(2,4-difluorobenzyl)-13-hydroxy-1,12-dioxo-1,4,5,7,8,12-hexahydro-3H-2,8-methanopyrido[1,2-d][1,4,7]oxadiazecine-11-carboxamide] | 8.24 | 20700 | 7.86 | 8.86
5 | O=C(NCc1c(F)cc(F)cc1F)c1cn2c(c(O)c1=O)C(=O)N1CCC[C@@H]3C[C@]32C1 [Example 66-1, (1aR,11aR)—N-(2,4,6-trifluorobenzyl)-7-hydroxy-6,8-dioxo-1a,2,3,4,6,8-hexahydro-1H-5,11a-methanocyclopropa[h]pyrido[1,2-a][1,4]diazonine-9-carboxamide] | 8.75 | 11100 | 7.69 | 9.65
6 | O=C(NCc1c(F)cc(F)cc1F)c1cn2c(c(O)c1=O)C(=O)N1CCC=C[C@H]2C1 [Example 109-2, (7S)-12-hydroxy-1,11-dioxo-N-(2,4,6-trifluorobenzyl)-1,4,7,11-tetrahydro-3H-2,7-methanopyrido[1,2-a][1,4]diazonine-10-carboxamide] | 8.83 | 11800 | 8.36 | 9.63
7 | O=C(NCc1ccc(F)cc1F)c1cn2c(c(O)c1=O)C(=O)N1CC=CC[C@H]2C1 [Example 47-2, (7S)—N-(2,4-difluorobenzyl)-12-hydroxy-1,11-dioxo-1,6,7,11-tetrahydro-3H-2,7-methanopyrido[1,2-a][1,4]diazonine-10-carboxamide] | 8.94 | 8720 | 8.99 | 9.61
8 | C[C@]12CCCCN(C1)C(=O)c1c(O)c(=O)c(C(=O)NCc3c(F)cc(F)cc3F)cn12 [Example 59-1, (7S)-12-hydroxy-7-methyl-1,11-dioxo-N-(2,4,6-trifluorobenzyl)-1,4,5,6,7,11-hexahydro-3H-2,7-methanopyrido[1,2-a][1,4]diazonine-10-carboxamide] | 8.82 | 15000 | 7.58 | 9.44
9 | C[C@H]1C=CC[C@H]2CN1C(=O)c1c(O)c(=O)c(C(=O)NCc3ccc(F)cc3F)cn12 [Example 149, (3S,7S)—N-(2,4-difluorobenzyl)-12-hydroxy-3-methyl-1,11-dioxo-1,6,7,11-tetrahydro-3H-2,7-methanopyrido[1,2-a][1,4]diazonine-10-carboxamide] | 8.80 | 10000 | 8.53 | 9.59
10 | O=C1c2c(O)c(=O)c(-c3nnc(Cc4ccc(F)cc4F)s3)cn2[C@H]2CCCCN1C2 [Example 185, (7S)-10-(5-(2,4-difluorobenzyl)-1,3,4-thiadiazol-2-yl)-12-hydroxy-4,5,6,7-tetrahydro-3H-2,7-methanopyrido[1,2-a][1,4]diazonine-1,11-dione] | 8.48 | 3550 | 8.31 | 9.01
11 | C[C@@H]1CC[C@H](C)N2C[C@H]1n1cc(C(=O)NCc3ccc(F)cc3F)c(=O)c(O)c1C2=O [Example 175, (3S,6R,7S)—N-(2,4-difluorobenzyl)-12-hydroxy-3,6-dimethyl-1,11-dioxo-1,4,5,6,7,11-hexahydro-3H-2,7-methanopyrido[1,2-a][1,4]diazonine-10-carboxamide] | 8.89 | 7740 | 7.68 | 9.39
